Data on ten molecules can be found in PubChem BioAssay (NCI).

Test systems include SF-268 CNS; A498 renal; SK-MEL-28 melanoma; NCI/ADR-RES ovarian; HS 578T breast; MDA-MB-435; ACHN renal; T-47D breast.
Holding throughout (experiment): NCI tumour cell line growth inhibition, 48 h

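Each compound was tested at five concentrations against cells in 96-well plates for 48 hours. At the GI50, growth is halved. TGI marks complete inhibition of growth.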 A value given as a limit tells only on which side of the number the result lay.

As to `Nc1n[nH]c2ccc([C@@H]3Nc4c(F)cc5[nH]ncc5c4[C@H]4C5CCC(C5)[C@@H]34)cc12` (some centres undefined), the GI50 was 2.34 µM with SF-268 CNS; 0.0413 µM with A498 renal; 2.19 µM in the assay with SK-MEL-28 melanoma; 0.234 µM in the assay on NCI/ADR-RES ovarian; 0.178 µM with HS 578T breast; 0.0327 µM with MDA-MB-435. For the same molecule, the values for the GI50 with ACHN renal and with T-47D breast were 0.912 µM and 0.509 µM, respectively. Further, the TGI with SF-268 CNS is above 47.5 µM; in the assay with A498 renal, 0.337 µM; in the assay with SK-MEL-28 melanoma, above 60.7 µM; with NCI/ADR-RES ovarian, 5.84 µM; in the assay with HS 578T breast it was 8.78 µM; with MDA-MB-435 it was 0.161 µM. The results for the TGI in the assay on ACHN renal and in the assay on T-47D breast were above 64.7 µM and above 100 µM, respectively.

As for `O=[N+]([O-])c1ccc(/C=C\c2ccc3c(c2)OCO3)c([N+](=O)[O-])c1`, the TGI in the assay with SF-268 CNS stood at 58.5 µM; with A498 renal, 46.7 µM; with SK-MEL-28 melanoma, 32.3 µM; with NCI/ADR-RES ovarian, 81.6 µM; in the assay with HS 578T breast it was 38.5 µM; with MDA-MB-435, 22.1 µM. The TGI with ACHN renal is 33.6 µM; with T-47D breast, above 100 µM.

Turning to `Cc1ccc(O)cc1Nc1ccnc2cc(-c3ccccn3)ccc12`, the GI50 was 1.71 µM with SF-268 CNS; 1.83 µM with A498 renal; 3.38 µM with SK-MEL-28 melanoma; 4.49 µM with NCI/ADR-RES ovarian; 2.45 µM in the assay with HS 578T breast; 1.98 µM with MDA-MB-435. Moreover, the GI50 in the assay on ACHN renal was 0.611 µM; with T-47D breast it was 1.72 µM. The TGI with SF-268 CNS stood at 5.88 µM; in the assay on A498 renal, 5.04 µM; in the assay on SK-MEL-28 melanoma, 6.79 µM; in the assay with NCI/ADR-RES ovarian, 15.3 µM; in the assay with HS 578T breast, 9.03 µM; with MDA-MB-435, 5.65 µM. Also, the values for the TGI in the assay with ACHN renal and in the assay with T-47D breast were 5.16 µM and 9.86 µM, respectively.

Regarding `CC/C(=C(/c1ccc(/C=C/C(=O)O)cc1)c1ccc2[nH]ncc2c1)c1ccc(F)cc1Cl`, the GI50 is 11.9 µM in the assay with SF-268 CNS; 4.75 µM with A498 renal; 7.25 µM with SK-MEL-28 melanoma; 9.08 µM in the assay with NCI/ADR-RES ovarian; 8.63 µM with HS 578T breast; 2.76 µM in the assay on MDA-MB-435. Also, the GI50 in the assay on ACHN renal is 9.16 µM; in the assay with T-47D breast, 0.141 µM. The TGI in the assay with SF-268 CNS turned out to be 27.4 µM; with A498 renal it was 17.9 µM; in the assay with SK-MEL-28 melanoma it was 22.2 µM; in the assay on NCI/ADR-RES ovarian, 26.5 µM; in the assay with HS 578T breast, 38.7 µM; in the assay with MDA-MB-435, 8.38 µM. Moreover, the figures for the TGI with ACHN renal and with T-47D breast were 24.3 µM and 26.9 µM, respectively.

For `Oc1ccc(-c2[nH]c3ccccc3c2-c2nc3ccccc3o2)cc1`, the GI50 in the assay with SF-268 CNS is 2.89 µM; in the assay on A498 renal, 2.18 µM; in the assay with SK-MEL-28 melanoma, 4.83 µM; with NCI/ADR-RES ovarian it was 2.63 µM; with HS 578T breast, 2.47 µM; in the assay on MDA-MB-435, 2.26 µM. The results for the GI50 in the assay on ACHN renal and in the assay on T-47D breast were 3.58 µM and 3.08 µM, respectively. Moreover, the TGI in the assay on SF-268 CNS came out at 12.9 µM; in the assay with A498 renal it was 14.9 µM; with SK-MEL-28 melanoma, 17.9 µM; in the assay on NCI/ADR-RES ovarian, 9.04 µM; in the assay with HS 578T breast, 18.4 µM; in the assay with MDA-MB-435, 8.74 µM. Further, the values for the TGI in the assay on ACHN renal and with T-47D breast were 14.9 µM and 15.4 µM, respectively.

Regarding `NCC(Cc1ccccc1)P(=O)(O)O` (centres undefined), the TGI in the assay on SF-268 CNS, in the assay on A498 renal, in the assay with SK-MEL-28 melanoma, with NCI/ADR-RES ovarian, with HS 578T breast and in the assay on MDA-MB-435 was above 100 µM in each case. Besides, the TGI in the assay with ACHN renal and in the assay with T-47D breast was above 100 µM in each case.

Take `CCOC(=O)c1cc2cc(OCc3ccccc3)ccc2[nH]1`: the GI50 in the assay on SF-268 CNS is above 100 µM; in the assay on A498 renal, above 100 µM; in the assay on SK-MEL-28 melanoma, above 100 µM; with NCI/ADR-RES ovarian, above 100 µM; in the assay with HS 578T breast, 49.6 µM; in the assay on MDA-MB-435, above 100 µM. Besides, the GI50 with ACHN renal and in the assay on T-47D breast was above 100 µM throughout. For the same molecule, the TGI in the assay with SF-268 CNS, in the assay on A498 renal, with SK-MEL-28 melanoma, with NCI/ADR-RES ovarian, in the assay with HS 578T breast and in the assay on MDA-MB-435 was above 100 µM in each case. For the same molecule, the TGI in the assay with ACHN renal and in the assay on T-47D breast was above 100 µM throughout.

With `Cc1nn2c(-c3nc4cc(Cl)c(Cl)cc4[nH]3)c(-c3ccc(F)cc3)nc2s1`, the GI50 in the assay with SF-268 CNS is 3.15 µM; in the assay with A498 renal, 2.09 µM; with SK-MEL-28 melanoma, 7.4 µM; with NCI/ADR-RES ovarian, 2.7 µM; in the assay on HS 578T breast, 2.78 µM; with MDA-MB-435 it was 4.65 µM. Further, the values for the GI50 in the assay with ACHN renal and in the assay on T-47D breast were 1.7 µM and 1.95 µM, respectively. For the same molecule, the TGI in the assay with SF-268 CNS is above 52.8 µM; with A498 renal it was 8.37 µM; with SK-MEL-28 melanoma, above 100 µM; in the assay on NCI/ADR-RES ovarian, above 30.3 µM; in the assay with HS 578T breast it was above 29.6 µM; with MDA-MB-435 it was above 100 µM. For the same molecule, the values for the TGI in the assay on ACHN renal and with T-47D breast were 5.25 µM and 14.5 µM, respectively.

Turning to `CCN(CCNc1ccc(C)c2sc3cc(Cl)ccc3c(=O)c12)CC(C)(C)O`, the GI50 was 16.5 µM with SF-268 CNS; 3.47 µM in the assay on A498 renal; 2.09 µM with SK-MEL-28 melanoma; 6.37 µM with NCI/ADR-RES ovarian; 5.01 µM with HS 578T breast; 2 µM with MDA-MB-435. Moreover, the values for the GI50 with ACHN renal and in the assay with T-47D breast were 12.7 µM and 11.8 µM, respectively. The TGI in the assay with SF-268 CNS was 69.4 µM; in the assay on A498 renal it was 14.9 µM; with SK-MEL-28 melanoma, 4.34 µM; in the assay on NCI/ADR-RES ovarian, 30.5 µM; in the assay on HS 578T breast, 21.2 µM; with MDA-MB-435 it was 4.59 µM. The TGI turned out to be 65 µM in the assay with ACHN renal and 37.5 µM with T-47D breast.

Consider `CC(=O)OC1COC(Oc2c(C)c3c4c(c2O)[C@@H](C)CC[C@@H]4[C@@H](C)C[C@H]3C=C(C)C)C(O)C1O` (some centres undefined), for which the GI50 in the assay on SF-268 CNS was 15.4 µM; in the assay on A498 renal it was 14.7 µM; in the assay with SK-MEL-28 melanoma it was 23.8 µM; with NCI/ADR-RES ovarian it was 15.3 µM; in the assay with HS 578T breast it was above 100 µM; with MDA-MB-435, 15.4 µM. Moreover, the GI50 is 18.5 µM with ACHN renal and 33.2 µM in the assay with T-47D breast. In addition, the TGI with SF-268 CNS was 38.5 µM; in the assay with A498 renal it was 30 µM; in the assay with SK-MEL-28 melanoma, 57.3 µM; in the assay with NCI/ADR-RES ovarian, 31.3 µM; in the assay with HS 578T breast it was above 100 µM; in the assay with MDA-MB-435, 30.6 µM. In addition, the results for the TGI in the assay on ACHN renal and with T-47D breast were 36.8 µM and above 100 µM, respectively.
